Here are results for six compounds from patent US20250136997A1, “COMPOSITIONS FOR SEQUESTERING ISOAMYL AMINE AND METHODS OF USE THEREFOR” (University of Louisville Research Foundation, Inc., priority 2023, published 2025).

Data set [1] concerns microglial cells. Briefly: Western blot of cleaved caspase-3 and cleaved PARP in ex vivo cultured microglial cells. In kind it is cell-based, mouse. The method, then:
Isolation of microglia, neuron, astrocytes, and oligodendrocytes from the brain. Mice were anaesthetized with a mixture of ketamine (16%) and xylazine (3%) by intraperitoneal injection and then sacrificed under basal conditions by transcardial perfusion with perfusion buffer (Ca^2+/Mg^2+ free HBSS containing 0.5 mM EGTA, 10 mM HEPES and 4.2 mM NaHCO3; pH 7.2). The perfused brain was removed and gently mechanically disaggregated with tweezers in dissociation buffer (HBSS containing 10 mM HEPES and 4.2 mM NaHCO3 supplemented with Type I collagenase (0.05%), Dispase II (25 mg/ml), DNase I (2.5 mg/ml), trypsin inhibitor ([…]); pH 7.5) followed by incubation at 37° C. for 1 hour. The tissue homogenate was centrifuged at 1,350×g for 5 minutes at 4° C. For the isolation of microglia, the digestion enzymes in the tissue homogenate were inactivated by addition of PBS/EDTA containing 5% fetal bovine serum (FBS) and the digested brain bits were triturated gently, passed over a 100 µm filter (Fisher Scientific) and centrifuged. […] The pellet of cells was rinsed in PBS. Any contaminating red blood cells (RBC) were lysed using RBC lysis buffer (Sigma) according to the manufacturer's instructions, rinsed twice with PBS and passed through a 40 µm filter (Fisher Scientific). Cells were then stained for CD11b and CD45 for flow cytometry analysis. The astrocytes were isolated from mouse cortices (n=10). The tissue homogenate was centrifuged at 800×g for 10 minutes at 4° C. following digestion with type II collagenase (1 mg/ml) and type I DNase (10 U/ml) in DMEM for 10 minutes. The cells pelleted by centrifugation were plated in a 100 mm culture dish coated with poly-L-ornithine (Sigma). For the isolation of oligodendrocytes, the glial cells above were cultured in specific media containing T3 and T4 (0.5 mM) as well as platelet-derived growth factor (PDGF, 10 ng/ml) to promote the growth of the different cell types. Isolated glial cells were labelled with the following antibodies against surface markers: CD11b (Biolegend, Cat #101206), CD45 (Biolegend, Cat #147710), GFAP (Biolegend, Cat #837508) and MOG (Biorbyt, Cat #orb412341-FITC). Cells positive for CD11b and CD45Med were identified as microglia. Cells positive for GFAP and negative for CD45 and CD11b were identified as astrocytes. Cells sorted with MOG+CD11b− were identified as oligodendrocytes. Neurons were isolated from mouse brain using the Pierce Primary Neuron Isolation Kit (Thermo Scientific, Cat #88280). Briefly, the tissue homogenate from freshly dissected cortexes was suspended in an equal volume of ice cold HBSS (Sigma) and replaced with Neuronal Isolation Enzyme (with papain) in a 37° C. incubator for 30 minutes. After washing with HBSS, the tissue was cultured in a poly-D-lysine coated plate with Neuronal Culture Medium.
Western blotting. Cells were treated as indicated in individual Figure legends and whole cell extracts (WCE) were prepared in the radioimmunoprecipitation assay (RIPA) buffer (Sigma) with addition of protease and phosphatase inhibitors (Roche). Proteins were separated by 10% SDS-PAGE and transferred to polyvinylidene difluoride (PVDF) membranes (Bio-Rad Laboratories, Inc., Hercules, CA). Dual color precision protein MW markers (BioRad) were separated in parallel. Antibodies were purchased as follows: cleaved-caspase-3 (ab214430), cleaved PARP (ab203467) and GAPDH (ab9657, Abcam) from Abcam; S100A8 (47310) and S100a9 (72590) from Cell Signaling; and Ltf (GTX81085) from GeneTex. The secondary antibodies conjugated to Fluors Alex-488 (A32723) or Alex-594 (A11012) were purchased from Invitrogen (Eugene, OR). The bands were visualized on the Odyssey Imager (LiCor Inc, Lincoln, NE).

Data set [2] concerns microglial cells. Briefly: FACS analysis of apoptotic bodies (ABs) in supernatants of cultured microglial cells. In kind it is cell-based, mouse. The note with it: microglial cells isolated from young mice. The method, then: Flow cytometry. Isolated cells were incubated with blocking solution (0.5% BSA/PBS) for 15 minutes at 4° C. For surface staining, cells were stained with various antibodies at room temperature for 1 hour and then washed with PBS. Washed cells were stained for 40 minutes at 4° C. with the appropriate fluorochrome-conjugated antibodies in PBS with 2% FBS. Data were acquired using a BD FACSCalibur flow cytometer (BD Biosciences, San Jose, CA) and analyzed using FlowJo software (Tree Star Inc., Ashland, OR). The following antibodies purchased from Biolegend were used for flow cytometry: anti-CD11b (101208), anti-CD45 (103112) and FITC Annexin V (640945). For the ABs analysis, extracellular vesicles were collected. To recognize the ABs, as described previously, size gates set based on forward scatter (FSC) were applied in combination with Annexin V staining. From these vesicles total ABs were detected using Annexin V staining events.
Isolation of apoptotic bodies. Apoptotic bodies (ABs) were isolated from culture supernatants as previously described. Briefly, cell culture medium was harvested and cells were removed by pelleting at 335×g for 10 minutes. To remove cell-debris, supernatants were centrifuged at 1,000×g for 10 minutes, followed by another centrifugation at 2,000×g for 30 minutes to pellet ABs. Pelleted ABs were resuspended and washed with PBS.

Data set [3] can be described thus: Interaction of S100p1-G and metabolite: streptavidin pull-down from BV2 cells and LC-MS. In kind it is cell-based, mouse. The note with it: cell lysates. The method, then: Interaction of S100p1-G and metabolite. Microglial BV2 cells (2×10^6) were transfected with biotinylated oligo S100p1-G or mutant using Lipofectamin RNAiMAX Reagent (Thermo Fisher) according to the manufacturer's instructions overnight at 37° C. […] of aged mouse fecal supernatant (from one-gram feces) was added into the cell growth medium. After six hours, the cells were collected in RIPA lysis buffer. […] of cell lysate was incubated with […] of DYNABEADS® Streptavidin beads (Thermo Fisher) at room temperature for 1 h. The bio-oligo complex was eluted with biotin (4 mg/ml)) in 25 mM Tris-HCL containing 0.3 M NaCl (PH 8.5) at 95° C. for 5 minutes. Metabolite analysis was performed with LC-MS.

The nature of data set [4]: Morris water maze (MWM) test. In kind it is in vivo, mouse. To be noted: aged mice, intravenous, twice a week for 2 months. The method, then:
Morris water maze (MWM) test. Mice were trained in a 122 cm diameter, 50 cm height open-field water maze with non-reflective interior surfaces. The pool water was filled with water maintained at 25±1° C. and mixed with non-toxic white tempera paint. Distinctive and extra-maze cues were marked on the wall at specific locations and were visible to the mice in the maze. Mice were removed from cages, placed into the water from quasi-random start points and allowed a maximum of 60 seconds to probe the escape platform. The inter interval of each trail remained for 15 seconds. For four consecutive days, four trials (training) were recorded each day with a final test on day 5 (FIG. 4A). Performance was evaluated by the mean escape latencies base on every training trial (Vorhees and Williams, 2006).

Data set [5] is described as follows: HPLC analysis of IAA and CA in serum and cerebrospinal fluid (CSF) of mice. The class given is in vivo, mouse. The note with it: aged mice, intravenous oligo, twice a week for 2 months.
The nature of data set [6]: Surface plasmon resonance (SPR) of biotin-labeled oligos with IAA. To be noted: biotin labeled oligo on streptavidin sensor chip. In kind it is binding. The method, then:
Surface plasmon resonance (SPR). To identify the binding activity of the metabolite IAA and S100A8 promoter sequence, SPR experiments were conducted on an OPENSPR™ (Nicoya, Lifesciences, CA). Experiments were performed on a streptavidin sensor (Nicoya, Lifesciences). SPR was run at a flow rate of 20 μl/min using HBS running buffer (20 mM HEPES, 150 mM NaCl, pH 7.4). First, the streptavidin sensor chip was cleaned with octyl β-D-glucopyranoside (40 mM) and CHAPS (20 mM). 200 μl of biotin-conjugated oligos (1 μg/ml, Table 5) were injected on the sensor chip for 10 minutes until a stable resonance was obtained. After immobilization of bio-oligo, the surface was blocked with BSA (3%) in running buffer. After a stable signal was obtained, IAA (10 nM) was run over the immobilized bio-oligo until a stable resonance was obtained. A negative control test was also performed by injecting IAA onto a blank sensor chip to check for non-specific binding. The sensograms were analyzed using TraceDrawer kinetic analysis software.
On the technique in general: In SPR one partner is held on a chip, and binding of the other changes the refractive index at the surface.

The nature of data set [7]: Single-strand gel shift (SSGS) assay. The class given is binding. To be noted: oligos (2 μM) incubated with IAA (10 μM), 15% PAGE. The method, then:
Single-strand gel shift (SSGS) assay. To identify the metabolite binding site of S100A8, we synthesized a series of oligonucleotides (oligos) (Eurofins Genomics LLC, KY) specific to the response putative IAA binding site at the promoter region of S100A8. The oligos ([…]) were incubated with […] of IAA at 37° C. for 30 minutes following electrophoresis on a 15% native PAGE without SDS in 0.5×TBE buffer. The oligos were stained with ethidium bromide ([…]) and visualized under ultraviolet (UV) light.
Given induction of bacterial metabolite IAA causes the degeneration of microglia by elevation of S100A8 at both the transcription and protein level, we hypothesized that IAA might directly target the promoter of S100A8 and regulate the expression of S100A8. Studying the interaction of metabolites, particularly small molecules, with nucleic acid is challenging due to a lack of appropriate tags for the metabolites. Because of this challenge, we developed a strategy raising the possibility to investigate the interaction of small molecules and nucleic acid.
To test our hypothesis, we first synthesized short single-DNA strains (around 60 mer length each) whose sequences spanned the promoter of S100A8 (FIG. 13A and Table 5). The site and sequence of the promoter and transcription start site (TSS) were determined according to the entire mRNA (Accession #NC_000069.7 (90,576,378 . . . 90,577,341)) and genomic sequence (Accession #L76381) from the NCBI nucleic acid database (FIG. 13A). These DNA oligos (2 μM) were incubated with IAA (10 μM) following native PAGE analysis (FIG. 4A). […] To define the accurate binding site of IAA, we synthesized 10 mer length DNA oligos covering the sequence of S100p1 (Table 5). Unfortunately, the 10 mer length oligo lost the conformational mobility shift in PAGE (FIG. 13C). We then tested the mobility shift with 20 mer oligos. […]
In general terms: Mobility shift assays separate free from complexed probe on a gel.

[8] abbreviates: added to ex vivo cultured microglial cells from young mice.

Turning to `C/C=C/C(=O)O` [CA, crotonic acid], in the data set with microglial cells [1] (S100A8 deficient microglia cells), the “effect on the microglia (cleaved caspase-3)” value is “abolished”. Moreover, in the data set on microglial cells [1] (setting [8]), the “cleaved caspase-3” value is listed as “increasing” and the “cleaved poly(-ADP-ribose) polymerase (PARP)” value is “increasing”. Further, the “ABs released into the culture supernatants” value with microglial cells [2] is “increase”.
For `NCCCC(=O)O` [GABA], in data set [3], the “metabolite within the Bio-S100p1-G complex (LC-MS)” value is listed as “did not find”.
Regarding `NCCCC[C@H](N)C(=O)O` [lysine], the “metabolite within the Bio-S100p1-G complex (LC-MS)” value in data set [3] is “did not find”.
Consider “S100p1-G-Mut: CTGTATGCAA TTGGCCAAGC (SEQ ID NO: 9), mutant control oligo (DNA CTGTATGCAATTGGCCAAGC; DNA, backbone and methylation of C not given here; further chemistry not fully specified)”, for which the “memory and spatial learning (MWM)” value in data set [4] is given as “not seen”. The “IAA in CSF (HPLC)” value in data set [5] is reported as “not seen”.
Consider “S100p1: CTGTGGGCAG CTGGCAAGC TTTCCTCTATAAAAGCAGCTGACACTTAGCCTCACAT (SEQ ID NO: 7), −57 . . . −1 (DNA CTGTGGGCAGCTGGCCAAGCTTTCCTCTATAAAAGCAGCTGACACTTAGCCTCACAT; DNA, backbone and methylation of C not given here; further chemistry not fully specified)”, for which the “interaction with IAA (SPR)” value in data set [6] is given as “targeted by IAA”. Moreover, the “mobility shift on native PAGE after incubation with IAA” value in data set [7] is on record as “mobility shifted”.
For “hS100A8p: AGCTGTGGGCAGCTGGCCAAGCCTAA (SEQ ID NO: 39), human S100A8 promoter oligo (DNA, backbone and methylation of C not given here; further chemistry not fully specified)”, the “mobility shift on native PAGE after incubation with IAA” value in data set [7] was “binds”.
